Source: US12281334B2, “Multi donor stem cell compositions and methods of making same” (Children's Hospital Medical Center, priority 2017, dated 2025)
“Also recorded” adds a separate entry of the source.

Tests used:
[1] = system: pooled iPSCs (two fluorescently labeled donors and one puromycin resistant donor); test: Donor ratio change by drug selection monitored by eDNA (drop out assay); format: cell-based, human; conditions: puromycin containing media; fluorescence imaging and eDNA donor identification PCR
From the text: FIG. 22. Donor ratio change monitored by gDNA in the culture medium. To confirm the eDNA donor identification, Applicant monitored cell ratio change by drug selection. Two types of fluorescently labeled cells and puromycin resistant cells were used as a positive control.
(§1) In one aspect, a “Drop out assay” is disclosed. In this aspect, genomic DNA in environments (environmental DNA, or “eDNA”), a form of cell-free DNA (cfDNA), exists in the environment to determine biodiversity such as sea and soil. Detection of circulating tumor derived cfDNA is an evolving component of cancer precision medicine. […] Remarkably, when applied into pooled stem cell culture, quantitative detection of respective donor correlates with the cell ratio in culture. Therefore, Applicant concluded eDNA-based noninvasive donor identification method is effective decoding strategy for pooled stem cell culture by eDNA in culture supernatant. PCR of eDNA in culture supernatant can be carried out using donor-specific SNP primers. Each SNP primer may be standardized, and the donor ratio of the iPSC pool can be estimated using eDNA contained in the culture supernatant (see FIG. 19). As a result, the cell ratio may be successfully determined by PCR of eDNA in the medium (see FIG. 20). […] In order to confirm the sensitivity of eDNA donor identification, Applicant monitored cell ratio change by drug selection. […]

[2] = system: fat-treated hepatocytes prepared from 11 iPSCs pool; test: Drop-out assay using induced hepatocytes treated with oleic acid and troglitazone; format: cell-based, human; conditions: eDNA based drop-out assay; oleic acid treated hepatocyte pool from eleven donors
Procedure: FIG. 23. Drop-out assay using induced hepatocytes treated with oleic acid and troglitazone. Drug screening assays for fat accumulation and drug treatment were performed using hepatocytes prepared from iPSC pools.
as §1

SMILES | fate of non-resistant iPSCs under drug selection [1] | sensitivity to drug induced hepatotoxicity, high fat accumulation risk donor cells vs healthy donor derived cells [2]
COc1ccc(C[C@H](N)C(=O)N[C@H]2[C@@H](O)[C@H](n3cnc4c(N(C)C)ncnc43)O[C@@H]2CO)cc1 [puromycin] | non-resistant iPSCs were disappeared on the second day of treatment; also recorded: two other donors died due to puromycin toxicity | –
Cc1c(C)c2c(c(C)c1O)CCC(C)(COc1ccc(CC3SC(=O)NC3=O)cc1)O2 (centres unmarked) [troglitazone] | – | significantly more sensitive
